Test results reported in ChEMBL document CHEMBL5260845, “Flavone-based arylamides as potential anticancers: Design, synthesis and in vitro cell-based/cell-free evaluations” (2020).
Activity calls are given as the source filed them. The calls are words filed in the database; no cut-off is given here.

Tests used:
EKVX = assay: Antiproliferative activity against human EKVX cells assessed as cell growth inhibition at 10 uM by SRB assay; format: functional
HOP-92 = assay: Antiproliferative activity against human HOP-92 cells assessed as cell growth inhibition at 10 uM by SRB assay; format: functional, cell-based
NCI-H226 = assay: Antiproliferative activity against human NCI-H226 cells assessed as cell growth inhibition at 10 uM by SRB assay; format: functional
NCI-H23 = assay: Antiproliferative activity against human NCI-H23 cells assessed as cell growth inhibition at 10 uM by SRB assay; format: functional
NCI-H522 = assay: Antiproliferative activity against human NCI-H522 cells assessed as cell growth inhibition at 10 uM by SRB assay; format: functional, cell-based
SF-295 = assay: Antiproliferative activity against human SF-295 cells assessed as cell growth inhibition at 10 uM by SRB assay; format: functional, cell-based
UO-31 = assay: Antiproliferative activity against human UO-31 cells assessed as inhibition of cell growth at 10 uM by SRB assay relative to control; format: functional
Hs-578T = assay: Antiproliferative activity against human Hs-578T cells assessed as inhibition of cell growth at 10 uM by SRB assay; format: functional, cell-based
CCRF-CEM = assay: Antiproliferative activity against human CCRF-CEM cells assessed as cell growth inhibition at 10 uM by SRB assay; format: functional, cell-based
HL-60 = assay: Antiproliferative activity against human HL-60 cells assessed as cell growth inhibition at 10 uM by SRB assay; format: functional, cell-based
K562 = assay: Antiproliferative activity against human K562 cells assessed as cell growth inhibition at 10 uM by SRB assay; format: functional, cell-based
MOLT-4 = assay: Antiproliferative activity against human MOLT-4 cells assessed as cell growth inhibition at 10 uM by SRB assay; format: functional, cell-based
RPMI-8226 = assay: Antiproliferative activity against human RPMI-8226 cells assessed as cell growth inhibition at 10 uM by SRB assay; format: functional, cell-based
SR = assay: Antiproliferative activity against human SR cells assessed as cell growth inhibition at 10 uM by SRB assay; format: functional, cell-based
SK-MEL-2 = assay: Antiproliferative activity against human SK-MEL-2 cells assessed as cell growth inhibition at 10 uM by SRB assay relative to control; format: functional; settings: Homo sapiens, SK-MEL-2, dose 10 µM
A549 = assay: Antiproliferative activity against human A549 cells assessed as cell growth inhibition at 10 uM by SRB assay; format: functional, cell-based
HOP-62 = assay: Antiproliferative activity against human HOP-62 cells assessed as cell growth inhibition at 10 uM by SRB assay; format: functional, cell-based
NCI-H322M = assay: Antiproliferative activity against human NCI-H322M cells assessed as cell growth inhibition at 10 uM by SRB assay; format: functional, cell-based
NCI-H460 = assay: Antiproliferative activity against human NCI-H460 cells assessed as cell growth inhibition at 10 uM by SRB assay; format: functional, cell-based
UACC-257 = assay: Antiproliferative activity against human UACC-257 cells assessed as cell growth inhibition at 10 uM by SRB assay relative to control; format: functional
UACC-62 = assay: Antiproliferative activity against human UACC-62 cells assessed as cell growth inhibition at 10 uM by SRB assay relative to control; format: functional
786-0 = assay: Antiproliferative activity against human 786-0 cells assessed as inhibition of cell growth at 10 uM by SRB assay relative to control; format: functional
RXF 393 = assay: Antiproliferative activity against human RXF 393 cells assessed as inhibition of cell growth at 10 uM by SRB assay relative to control; format: functional

| Compound | inhibition at 10 µM (EKVX) | inhibition (HOP-92) | inhibition at 10 µM (NCI-H226) | inhibition at 10 µM (NCI-H23) | inhibition (NCI-H522) | inhibition (SF-295) | inhibition (UO-31) | inhibition (Hs-578T) | inhibition (CCRF-CEM) | inhibition (HL-60) | inhibition (K562) | inhibition (MOLT-4) | inhibition (RPMI-8226) | inhibition (SR) | inhibition at 10 µM (SK-MEL-2) | also measured |
| --- | --- | --- | --- | --- | --- | --- | --- | --- | --- | --- | --- | --- | --- | --- | --- | --- |
| COC(=O)c1ccc(C(=O)Nc2ccc(-c3cc(=O)c4c(OC)c(OC)c(OC)cc4o3)cc2)cc1 | < 50% | Active | < 50% | < 50% | Active | Active | Active | Active |  |  |  |  |  |  |  |  |
| COc1cc2oc(-c3cccc(NC(=O)c4ccc(C(F)(F)F)cc4)c3)cc(=O)c2c(OC)c1OC | < 50% | Active | < 50% | < 50% | Active | Active | Active | Active | Active | Active | Active | Active | Active | Active | ≤ 46% |  |
| COc1cc2oc(-c3ccc(NC(=O)c4cccc(C#N)c4)cc3)cc(=O)c2c(OC)c1OC | < 50% | Active | < 50% | < 50% | Active | Active | Active | Active | Active | Active | Active | Active | Active | Active |  |  |
| COc1cc2oc(-c3cccc(NC(=O)c4ccccc4Br)c3)cc(=O)c2c(OC)c1OC | < 50% | Active | < 50% | < 50% | Active | Active | Active | Active | Active | Active | Active | Active | Active | Active | ≤ 46% |  |
| COc1cc2oc(-c3ccc(NC(=O)c4ccc([N+](=O)[O-])cc4)cc3)cc(=O)c2c(OC)c1OC | < 50% | Active | < 50% | < 50% | Active | Active | Active | Active |  |  |  |  |  |  |  |  |
| COc1cc2oc(-c3cccc(NC(=O)c4cccc(C#N)c4)c3)cc(=O)c2c(OC)c1OC | < 50% | Active | < 50% | < 50% | Active | Active | Active | Active | Active | Active | Active | Active | Active | Active | ≤ 46% |  |
| COc1cc2oc(-c3cccc(C(=O)Nc4ccc(C#N)cc4)c3)cc(=O)c2c(OC)c1OC |  | Active |  |  | Active |  |  |  |  |  |  |  |  |  |  | inhibition (A549): Active; inhibition (EKVX): Active; inhibition (HOP-62): Active; inhibition (NCI-H226): Active; inhibition (NCI-H23): Active; inhibition (NCI-H322M): Active; inhibition (NCI-H460): Active |
| COc1cc2oc(-c3cccc(NC(=O)c4ccc(C)cc4)c3)cc(=O)c2c(OC)c1OC | < 50% | Active | < 50% | < 50% | Active | Active | Active | Active | Active | Active | Active | Active | Active | Active | ≤ 46% | inhibition at 10 µM (UACC-257): 56.1%; inhibition at 10 µM (UACC-62): 50.8% |
| CNC(=O)c1cc(Oc2ccc(NC(=O)Nc3ccc(Cl)c(C(F)(F)F)c3)cc2)ccn1 [SORAFENIB] |  |  |  |  |  |  |  |  |  |  |  |  |  |  |  | inhibition at 10 µM (786-0): 84.5% |
| COc1cc2oc(-c3cccc(NC(=O)c4ccc(C#N)cc4)c3)cc(=O)c2c(OC)c1OC | < 50% | Active | < 50% | < 50% | Active | Active | Active | Active | Active | Active | Active | Active | Active | Active | ≤ 46% | inhibition (A549): Active; inhibition (EKVX): Active; inhibition (HOP-62): Active; inhibition (NCI-H226): Active; inhibition (NCI-H23): Active; inhibition (NCI-H322M): Active; inhibition (NCI-H460): Active |
| COc1cc2oc(-c3ccc(NC(=O)c4cccc(Br)c4)cc3)cc(=O)c2c(OC)c1OC | < 50% | Active | < 50% | < 50% | Active | Active | Active | Active | Active | Active | Active | Active | Active | Active |  |  |
| COC(=O)c1ccc(C(=O)Nc2cccc(-c3cc(=O)c4c(OC)c(OC)c(OC)cc4o3)c2)cc1 | < 50% | Active | < 50% | < 50% | Active | Active | Active | Active | Active | Active | Active | Active | Active | Active | ≤ 46% |  |
| COc1cc2oc(-c3ccc(NC(=O)c4ccc(C#N)cc4)cc3)cc(=O)c2c(OC)c1OC | < 50% | Active | < 50% | < 50% | Active | Active | Active | Active |  |  |  |  |  |  |  |  |
| COc1cc2oc(-c3ccc(NC(=O)c4ccc(Br)cc4)cc3)cc(=O)c2c(OC)c1OC | < 50% | Active | < 50% | < 50% | Active | Active | Active | Active | inactive | inactive | inactive | inactive | inactive | inactive |  |  |
| COc1cc2oc(-c3cccc(C(=O)Nc4ccc(Br)cc4)c3)cc(=O)c2c(OC)c1OC |  | Active |  |  | Active |  |  |  | Active | Active | Active | Active | Active | Active |  | inhibition (A549): Active; inhibition (EKVX): Active; inhibition (HOP-62): Active; inhibition (NCI-H226): Active; inhibition (NCI-H23): Active; inhibition (NCI-H322M): Active; inhibition (NCI-H460): Active; inhibition (RXF 393): Active |
